# Measurements from patent US20230265157A1, “MHC MULTIMER EXPRESSION CONSTRUCTS AND USES THEREOF” (priority 2020, published 2023).
# Test system: WT-1-specific T cells
# Test: Specific cell staining / titration on WT-1-specific T cells
# Type: cell-based
# Settings: untreated, digested and WT-1-exchanged tetramers at 1 nM and 20 nM
# Excerpt: The amino acid sequence of the Y84A HLA alpha chain is shown in SEQ ID NO: 321. This mutation is known in the art to stabilize binding of the tethered peptide by reducing steric conflict with the peptide linker.
substance,measurement,value
Y84A variant of the A*02:01 tetramer,staining of NLV- and WT-1-specific CD8+ T cells,converting NLV reactivity to WT-1 reactivity
